{
  "source": "patent US6537545B1",
  "about": "“Use of corneal hardening agents in enzymeorthokeratology” (ISTA Pharmaceuticals, Inc., priority 1998, dated 2003)",
  "key": {"[1]": {"tested_on": "Dutch Belted rabbit corneas", "assay": "Safety of glyceraldehyde in rabbits, slit lamp examination scores (Example 1)", "format": "in vivo", "conditions": "500 IU hyaluronidase day 1, 3% glyceraldehyde 20 μL intrastromal day 8, then 1 drop three times a day, 50 days, control BSS", "description": "In this Example, the safety of treating Dutch Belted rabbit corneas with glyceraldehyde following administration of the corneal softening enzyme hyaluronidase was investigated. This study involved the use of five (5) pigmented Dutch Belted rabbits, two (2) in the control group and three (3) in the glyceraldehyde treated group.\nAll rabbits received a thorough slit lamp examination on the first day of the study to establish the baseline using the following technique. A Nikon FS-2 Slit Lamp was used for the examinations of the test animals. For each animal examined, the eyes were dilated by instilling one drop of 1.0% tropicamide (Bausch and Lomb, Tampa, Fla.) and 2.5% phenylephrine (Bausch and Lomb, Tampa, Fla.). The animal was then positioned in front of a slit lamp. The corneas of each animal were examined for edema and the surface area involved with edema was estimated. The anterior chambers of the animals were closely examined for chamber depth, aqueous cell and flare, and fibrin. The iris of each animal was examined for atrophy, symmetry, or synechiae. The lens was examined and cellular debris, capsule, or lens protein abnormalities were noted if present. The vitreous humor of each animal were then examined for the presence of cells or other abnormnalities. […]"}, "[2]": {"tested_on": "eyes of myopic human subjects", "assay": "Mild myopia study, group II: 500 IU hyaluronidase, corrective lenses, 3% glyceraldehyde (Example 9)", "format": "in vivo", "description": "Given the favorable results obtained in Example 8, an additional study was undertaken to test the safety and efficacy of the method of the present invention using a larger group of subjects. In this study, a group of subjects were selected and randomly separated into three test groups to test the safety and efficacy of using hyaluronidase and a glyceraldehyde solution for treating subjects with sub-optimal visual acuity. Groups one and two received an intrastromal injection of hyaluronidase (50 and 500 IU, respectively), while group three received a control injection of saline.\nFollowing a two week incubation period after the injection, the three groups were fitted with corrective lenses to optimize the visual acuity of the subjects. The corrective lenses were left in place for a period of time sufficient to alter the shape of the subjects' eyes so as to achieve an optimal visual acuity. This period of time was generally 2 days in length. Once an acceptable visual acuity was achieved, the subjects in the three groups received a topical 3% glyceraldehyde solution in the form of ophthalmic drops four times per day while wearing the corrective lenses. The glyceraldehyde treatment was generally administered for one month. Lens wear occurred from 8 to 12 hours during the day.\nAt the end of the treatment period both the lens wear and the glyceraldehyde solution administration was terminated. The general health and visual acuity of the subjects was monitored from 3 to 5 months following treatment termination.\nThe subjects of group II were treated as those in group I in preparation for their participation in the study reported here. Before beginning the experimental protocol, test subjects were examined initially to establish a baseline from which the future results of the treatment were compared.\nFollowing the establishment of a baseline reading, group II subjects were fitted with contact lenses and wore the corrective lenses at night for a period of two (2) to seven (7) days or until an acceptable visual acuity (approximately 20/20) was achieved. Group II test subjects received 500 IU of hyaluronidase by injection as compared to the 50 IU of group I. Two groups of subjects received 500 IU of hyaluronidase. The results obtained from the first group are shown in Table IIIA and the results from the second group are shown in Table IIIA and are identified in the table by the notation Gr. VI. There were no meaningful differences in the treatment protocols between these two groups. Subjects achieving an acceptable visual acuity received the topical 3% glyceraldehyde solution in the form of ophthalmic drops four times per day (08:00, 12:00, 16:00, and 20:00) for a period of 1 month in conjunction with daytime lens wear for stabilization. During this period, lens were occurred for approximately 8-12 hours per day and there was no nocturnal lens wear.\nThe subjects were examined periodically during the glyceraldehyde treatment to monitor changes in the health of the treated eyes.\nAt the end of the treatment period, the stabilizing lens were removed and the administration of the 3% glyceraldehyde solution was terminated. Following termination of the treatment, the subjects were examined immediately after treatment was terminated, once a week for the first four weeks after termination, and then monthly to measure changes in the visual acuity of the treated eyes. The health of the eye was also monitored. Sequelae characterized by the appearance or worsening of serious ocular symptoms or slit-lamp findings observed during these examinations were assessed. The proportions of subjects with such findings were analyzed."}},
  "data": [
    {"smiles": "O=CC(O)CO", "note": "(stereo not shown) [glyceraldehyde]", "values": [
      {"measurement": "clinical observations (slit lamp scores), statistical analysis vs control group", "setting": "[1]", "result": "no differences between the groups"},
      {"measurement": "UVA at follow-up after lens removal", "setting": "[2]; Gr. VI subject 101, one month time point, baseline 20/200", "result": "20/60"},
      {"measurement": "UVA at follow-up after lens removal", "setting": "[2]; Gr. VI subject 102, two month date, baseline 20/160", "result": "20/20"},
      {"measurement": "UVA at follow-up after lens removal", "setting": "[2]; Gr. VI subject 103, two month date, baseline 20/160", "result": "20/50"},
      {"measurement": "UVA at follow-up after lens removal", "setting": "[2]; Gr. VI subject 104, one month time point, baseline 20/200", "result": "20/80"},
      {"measurement": "UVA at follow-up after lens removal", "setting": "[2]; Gr. VI subject 105, two month date, baseline 20/200", "result": "20/80"},
      {"measurement": "UVA at follow-up after lens removal", "setting": "[2]; Gr. VI subject 106, two month date, baseline 20/160", "result": "20/63"},
      {"measurement": "UVA at follow-up after lens removal", "setting": "[2]; Gr. VI subject 107, one month time point, baseline 20/60", "result": "20/20"},
      {"measurement": "overall effect on retention of orthokeratology benefits", "setting": "[2]; combination of hyaluronidase (500 IU) and glyceraldehyde treatment", "result": "effective at retaining the benefits of orthokeratology"},
      {"measurement": "UVA at follow-up after lens removal", "setting": "[2]; subject 00S/031, three month point, baseline 20/200", "result": "20/50"},
      {"measurement": "UVA at follow-up after lens removal", "setting": "[2]; subject 004, four month point, baseline 20/160", "result": "20/50"},
      {"measurement": "UVA at follow-up after lens removal", "setting": "[2]; subject 013, three month point, baseline 20/100", "result": "20/40"},
      {"measurement": "UVA at follow-up after lens removal", "setting": "[2]; subject 017, three month point, baseline 20/50", "result": "20/25"},
      {"measurement": "UVA at follow-up after lens removal", "setting": "[2]; subject 018, three month point, baseline 20/80", "result": "20/25"},
      {"measurement": "UVA at follow-up after lens removal", "setting": "[2]; subject 019, three month point, baseline 20/70", "result": "20/15"},
      {"measurement": "UVA at follow-up after lens removal", "setting": "[2]; subject 023, two months, baseline 20/70", "result": "20/20"},
      {"measurement": "UVA at follow-up after lens removal", "setting": "[2]; subject 026, two months, baseline 20/50", "result": "20/25"},
      {"measurement": "UVA at follow-up after lens removal", "setting": "[2]; subject 030, two months, baseline 20/300", "result": "20/100"},
      {"measurement": "UVA at follow-up after lens removal", "setting": "[2]; subject P10/008, three month point, baseline 20/400", "result": "20/80"}
    ]}
  ]
}
